Counter-ions that a name gives are not always drawn.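 Five compound concentrations were applied to cells in 96-well plates for 48 hours; endpoints were derived by simple linear interpolation of the resulting dose-response curve. The concentration for 50% growth inhibition is given as GI50.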 Calls of active or inactive are those of the source. Cut-off read from the data, not from the text of the source: active = GI50 up to about 1.1 µM and inactive = higher. Non-standard residues stand in square brackets, D forms with d. Residues, ends and D or L forms follow the SMILES beside them. ξ: configuration not given here. *: point of attachment. X18 = COC1=CC(=O)N(C(=O)C(O*)C(C)C)C1Cc1ccccc1; ξNMe2Val = CC(C)C(C(=O)*)N(C)C; NMeV = CN[CH](C(=O)O)C(C)C
Key:
Assay in all cases: NCI-60 cell line screen, 48 h
786-0 = test system: 786-0
DU-145 = test system: DU-145
CAKI-1 = test system: CAKI-1
LOX IMVI = test system: LOX IMVI
SF-539 = test system: SF-539
PC-3 = test system: PC-3
EKVX = test system: EKVX
HCT-116 = test system: HCT-116
UACC-257 = test system: UACC-257
SN12C = test system: SN12C
HOP-62 = test system: HOP-62
Malme-3M = test system: Malme-3M
HL-60 = test system: HL-60
OVCAR-5 = test system: OVCAR-5
CCRF-CEM = test system: CCRF-CEM
UACC-62 = test system: UACC-62
ACHN = test system: ACHN
KM-20L2 = test system: KM-20L2
MDA-MB-435 = test system: MDA-MB-435
Hs-578T = test system: Hs-578T

SMILES	GI50 (786-0)	GI50 (DU-145)	GI50 (CAKI-1)	GI50 (LOX IMVI)	GI50 (SF-539)	GI50 (PC-3)	GI50 (EKVX)	GI50 (HCT-116)	GI50 (UACC-257)	GI50 (SN12C)	GI50 (HOP-62)	GI50 (Malme-3M)	GI50 (HL-60)	GI50 (OVCAR-5)	GI50 (CCRF-CEM)	GI50 (UACC-62)	GI50 (ACHN)	GI50 (KM-20L2)	GI50 (MDA-MB-435)	GI50 (Hs-578T)
COC1=CC(=O)N(C(=O)C(OC(=O)C2CCCN2C(=O)C2CCCN2C(=O)C(C(C)C)N(C)C(=O)C(NC(=O)C(C(C)C)N(C)C)C(C)C)C(C)C)C1Cc1ccccc1 (stereo not given) (ξNMe2Val-V[NMeV]PP-X18; configuration not given here)	2.23 nM (active)	0.618 nM (active)	1.03 nM (active)	0.849 nM (active)	1.35 nM (active)	1.58 nM (active)	2.42 nM (active)	0.582 nM (active)	2.5 nM (active)	1.88 nM (active)	4.61 nM (active)	2.7 nM (active)	0.171 nM (active)	< 10 nM (active)	0.309 nM (active)	1.89 nM (active)	9.31 nM (active)	1.35 nM (active)	0.0513 nM (active)	0.188 nM (active)
CC(=O)N(O)CCCCCNC(=O)CCC(=O)N(O)CCCCCNC(=O)CCC(=O)N(O)CCCCCN [DEFEROXAMINE HYDROCHLORIDE]	13300 nM (inactive)	13600 nM (inactive)	42400 nM (inactive)	13500 nM (inactive)	30100 nM (inactive)	> 73600 nM (inactive)	29000 nM (inactive)	14000 nM (inactive)	50400 nM (inactive)	25900 nM (inactive)	18400 nM (inactive)	55100 nM (inactive)	31000 nM (inactive)	12500 nM (inactive)	4480 nM (inactive)	31600 nM (inactive)	12500 nM (inactive)	17800 nM (inactive)	> 78500 nM (inactive)	> 100000 nM (inactive)

Source: ChEMBL document CHEMBL1201862, “PubChem BioAssay data set” (2004)
